Results as given in patent US12599604B2, “Application of JAK inhibitor in kidney disease” (JIANGSU HENGRUI PHARMACEUTICALS CO., LTD., priority 2020, dated 2026).

Experiments:
[1] = system: cisplatin-induced acute kidney injury mouse models; experiment: Cisplatin-induced acute kidney disease models (Example 4); type: in vivo; conditions: for mortality rate of the mice: day 7 post modeling, same dosage (2.5 mg/kg oral BID per the 4th table), n=10
Experimental: After arrival and subsequent 7-day acclimation, the animals were randomly grouped. Except the animals in the control group, all other animals needed to be modeled by intraperitoneal injection with cisplatin. From day −3 to day 0, the mice in each group were administered BID. On the day of modeling (day 0), the animals were intraperitoneally injected with cisplatin (15 mg/kg) post administration in the morning. The dosing was continued until day 7. After the modeling, serum and urine samples were collected from the animals on day 4 and day 7, respectively, to measure the blood creatinine, urea nitrogen, and urinary albumin/creatinine (UACR) levels.
(§1) The effects of the compounds on the kidney were then evaluated.

[2] = system: ischemia-reperfusion mouse models; experiment: Ischemia-reperfusion models in mice (Examples 1 and 2); type: in vivo
Experimental: After arrival and subsequent 7-day acclimation, the animals were randomly grouped. Except the animals in the control group, all other animals needed to be modeled. On day −1, the mice in each group were administered by gavage twice a day (BID). On the day of surgery (day 0), the mice underwent surgery post administration in the morning. On day 1, the dosing was continued, and on day 2, the endpoint treatment was performed. The mice were subjected to blood collection 24 hours and 48 hours post surgery, and for the endpoint treatment, their kidneys were taken and fixed in a formaldehyde solution for subsequent HE pathological detection.
The specific steps of the ischemia-reperfusion surgery were as follows: the mice were anesthetized with 4% chloral hydrate (10 ml/kg, ip) and secured in a prone position. An incision was made on the back and the right kidney was isolated while ensuring that the adrenal gland and ureter were not injured. The renal artery and renal vein were ligated and the right kidney was excised. The left kidney was isolated, and the renal arterial and venous tracts were carefully separated and clipped for 30 min using a mini bulldog clamp, and then the clamp was loosened. The skin was sutured layer by layer with a needle and thread, and the mice were returned to their cages for recovery.
as §1

[3] = molecular target: Janus kinase subtype 1 (Homo sapiens, UniProt P23458); conditions: background statement, no data; cited from earlier work
[4] = system: LPS-induced acute kidney injury mouse models; experiment: Lipopolysaccharide (LPS)-induced acute kidney disease models (Example 3); type: in vivo; conditions: FIG. 10
Experimental: After arrival and subsequent 7-day acclimation, the animals were randomly grouped. Except the animals in the control group, all other animals needed to be modeled by intraperitoneal injection with LPS. From day −2 to day 0, the mice in each group were administered by gavage, BID. On the day of modeling (day 0), the animals were intraperitoneally injected with LPS (12 mpk) post administration in the morning. Blood samples were collected after 24 h, and creatinine and urea nitrogen levels were measured.
as §1

Janus kinase subtype 1, sequence (P23458 whole entry): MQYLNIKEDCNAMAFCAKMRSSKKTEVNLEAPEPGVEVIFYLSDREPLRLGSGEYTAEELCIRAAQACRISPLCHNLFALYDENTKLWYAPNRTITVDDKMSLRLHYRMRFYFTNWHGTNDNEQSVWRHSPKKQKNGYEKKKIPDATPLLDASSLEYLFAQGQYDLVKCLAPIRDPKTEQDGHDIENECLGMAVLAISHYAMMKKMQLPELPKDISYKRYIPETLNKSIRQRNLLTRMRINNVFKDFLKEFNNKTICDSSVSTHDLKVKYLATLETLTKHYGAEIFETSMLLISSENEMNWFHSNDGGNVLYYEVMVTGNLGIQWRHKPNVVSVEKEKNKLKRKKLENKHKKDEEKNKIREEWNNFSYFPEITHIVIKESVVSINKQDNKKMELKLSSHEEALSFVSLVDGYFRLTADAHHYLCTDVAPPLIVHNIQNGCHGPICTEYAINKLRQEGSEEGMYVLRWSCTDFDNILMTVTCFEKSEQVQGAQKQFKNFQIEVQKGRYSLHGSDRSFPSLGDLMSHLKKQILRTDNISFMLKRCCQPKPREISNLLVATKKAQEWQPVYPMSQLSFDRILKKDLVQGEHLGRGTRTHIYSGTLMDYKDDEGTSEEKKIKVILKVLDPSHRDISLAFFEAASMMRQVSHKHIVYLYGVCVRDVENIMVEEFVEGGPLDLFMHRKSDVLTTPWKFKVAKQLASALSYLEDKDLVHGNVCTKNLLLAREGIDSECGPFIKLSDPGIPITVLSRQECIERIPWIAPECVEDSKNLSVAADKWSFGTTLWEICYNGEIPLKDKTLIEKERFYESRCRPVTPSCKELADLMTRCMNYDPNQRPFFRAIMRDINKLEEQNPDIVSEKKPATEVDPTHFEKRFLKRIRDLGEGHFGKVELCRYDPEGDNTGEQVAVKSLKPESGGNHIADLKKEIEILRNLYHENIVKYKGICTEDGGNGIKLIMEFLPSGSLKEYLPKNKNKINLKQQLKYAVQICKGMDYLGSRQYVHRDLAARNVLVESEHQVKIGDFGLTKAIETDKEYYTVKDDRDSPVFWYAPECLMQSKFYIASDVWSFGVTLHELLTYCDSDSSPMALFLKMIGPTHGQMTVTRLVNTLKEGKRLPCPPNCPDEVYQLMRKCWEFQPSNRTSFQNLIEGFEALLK

Structure (SMILES)	mortality rate of the mice [1] [%]	kidney/body weight ratio (renal compensatory hypertrophy) ([2]; Example 1, 10 mg/kg oral BID, 48 hours post modeling, FIG. 6)	improvement of kidney/body weight ratio compared with compound B ([2]; Example 1, 10 mg/kg oral BID, FIG. 6)	body weight reduction caused by ischemia-reperfusion ([2]; Example 1, 10 mg/kg oral BID, compared with compound B at the same dosage, FIG. 5)	kidney HE pathological scores ([2]; Example 1, 10 mg/kg oral BID, scores 0-3, FIG. 9)	blood creatinine and urea nitrogen, difference from the model group ([2]; Example 2, 5 mpk and 10 mpk oral BID, FIG. 8)	renal hypertrophy, difference from the model group ([2]; Example 2, 5 mpk oral BID, FIG. 7)	renal hypertrophy caused by ischemia-reperfusion (kidney/body weight ratio) ([2]; Example 2, all dosage groups 2.5 mpk, 5 mpk and 10 mpk oral BID, FIG. 7)	blood creatinine and urea nitrogen levels ([2]; Example 2, all dosage groups 2.5 mpk, 5 mpk and 10 mpk oral BID, FIG. 8)	blood creatinine and urea nitrogen, protective effect compared with compound B ([2]; Example 2, same dosage (5 mg/kg oral BID), FIG. 8)	overall kidney protective effect compared with compound B ([2]; Examples 1 and 2)	overall kidney protective effect (mortality, renal hypertrophy, kidney pathology, blood biochemical parameters) ([2]; Examples 1 and 2, compared with the model group)	inhibitory activity against Janus kinase subtype 1 relative to subtype 2 or subtype 3 (selectivity) [3]	blood creatinine and urinary albumin levels induced by cisplatin ([1]; 1.25, 2.5, 5 mg/kg oral BID, cisplatin 15 mg/kg ip, FIG. 11)	blood creatinine, blood urea nitrogen, urinary albumin/creatinine ratio, significance ([1]; 2.5 mpk and 5 mpk oral BID, FIG. 11)	kidney protective functions compared with compound B ([1]; cisplatin models, FIG. 11)	mortality of the mice ([1]; different dosages (1.25, 2.5, 5 mg/kg oral BID), model group 100% dead on day 6)	kidney protective functions, 5 mpk and 10 mpk compared with 2.5 mpk group ([4]; 5 mpk and 10 mpk oral BID)	blood creatinine and urea nitrogen levels induced by LPS ([4]; different dosage groups (2.5, 5, 10 mg/kg oral BID), 24 h after LPS 12 mpk ip)
CCS(=O)(=O)N1CC(CC#N)(n2cc(-c3ncnc4[nH]ccc34)cn2)C1 [Compound B, Baricitinib, reference compound]	80																		
COc1nsc(NC(=O)N2C[C@H]3C[C@H](N(C)c4ncnc5[nH]ccc45)C[C@H]3C2)n1 [Compound A, (3 aR,5 s,6aS)—N-(3-methoxy-1,2,4-thiadiazol-5-yl)-5-(methyl(7H-pyrrolo[2,3-d]pyrimidin-4-yl)amino)hexahydrocyclopenta[c]pyrrole-2(1H)-carb oxamide]	40	decreased kidney/body weight ratios	had some advantages in improving the kidney/body weight ratios	smaller decrease in body weight	significantly improved the kidney HE pathological scores	showed significant differences compared with the model group	significant difference	could reduce the renal hypertrophy	alleviated the increase in blood creatinine and urea nitrogen levels	stronger protective effect compared with compound B	more excellent kidney protective effect	exhibited kidney protective effects	stronger inhibitory activity against Janus kinase subtype 1 relative to Janus kinase subtype 2 or Janus kinase subtype 3	dose-dependently alleviated the increase in blood creatinine and urinary albumin levels	showed significant differences	exhibited stronger kidney protective functions	significantly decreased the mortality	Stronger kidney protective functions	significantly alleviated the increase in blood creatinine and urea nitrogen levels
